How the values were obtained:
mouse ENT-1 transporter = target: T1, mouse ENT-1 transporter (Mus musculus, UniProt Q9JIM1); assay: ENT1 adenosine uptake inhibition ([3H]-adenosine transport activity); format: cell-based; settings: stable cells expressing mouse ENT-1; [2,8-3H]-adenosine 6 nM, 20 min
T1 construct: expressed in transfected cells
T1 sequence (Q9JIM1 1-460): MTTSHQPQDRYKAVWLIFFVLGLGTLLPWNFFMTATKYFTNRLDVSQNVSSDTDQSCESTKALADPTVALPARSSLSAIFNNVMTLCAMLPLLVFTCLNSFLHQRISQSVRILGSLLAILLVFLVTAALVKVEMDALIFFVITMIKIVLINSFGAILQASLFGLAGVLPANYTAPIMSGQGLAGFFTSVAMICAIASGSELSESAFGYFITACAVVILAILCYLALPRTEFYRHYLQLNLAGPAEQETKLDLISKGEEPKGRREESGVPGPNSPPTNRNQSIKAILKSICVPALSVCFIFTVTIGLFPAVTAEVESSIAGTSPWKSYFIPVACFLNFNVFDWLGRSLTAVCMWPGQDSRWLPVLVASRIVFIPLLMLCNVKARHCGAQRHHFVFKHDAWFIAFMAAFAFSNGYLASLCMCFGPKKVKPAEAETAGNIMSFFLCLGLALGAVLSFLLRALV
Description: To measure adenosine transport activity of ENT-1 mammalian cells, stable cells expressing the mouse ENT-1 transporter were plated on day 1 in 96-well culture plates at the density of 60,000 cells/well, in complete DMEM/F12 medium supplemented with glutamax, 10% FBS and 10 μg/ml puromycin. On day 2, the medium was aspirated and the cells were washed twice with uptake buffer (10 mM Hepes-Tris, pH 7.4 containing 150 mM NaCl, 1 mM CaCl2, 2.5 mM KCl, 2.5 mM MgSO4, 10 mM D-glucose) (UB). For inhibition experiments, cells were then incubated at RT with various concentrations of compounds with 1% DMSO final. Non-specific uptake was defined in the presence of 10 μM S-(4-Nitrobenzyl)-6-thioinosine (NBTI, Sigma Cat #N2255).
A solution containing [2,8-^3H]-adenosine 6 nM (40 Ci/mmol, American Radiolabeled chemicals Inc, Cat #ART 0287A) was then immediately added to the wells. The plates were then incubated for 20 min with gentle shaking and the reaction was stopped by aspiration of the mixture and washing (three times) with ice-cold UB. The cells were lysed by the addition of scintillation liquid, shaken 3 hours and the radioactivity in the cells was estimated using a microplates scintillation counter (TopCount NXT, Packard).

[1] = test system: L-687,414-induced hyperlocomotion; assay: L-687,414-induced hyperlocomotion; format: in vivo, mouse; settings: mice; dose 30 mg/kg ip, 15 min before s.c. 50 mg/kg L-687,414
Description: The described compounds of formula I reduce L-687,414-induced hyperlocomotion. This was assessed by using a computerized Digiscan 16 Animal Activity Monitoring System (Omnitech Electronics, Columbus, Ohio) to quantify locomotor activity. Animals were kept under a 12 h light/dark cycle and experiments were performed during the light period. Each activity monitoring chamber consisted of a Plexiglas box (41×41×28 cm; W×L×H) with sawdust bedding on the floor surrounded by invisible horizontal and vertical infrared sensor beams. The test boxes were divided by a Plexiglas cross providing each mouse with 20×20 cm of moving space. Cages were connected to a Digiscan Analyzer linked to a computer that constantly collected the beam status information. Records of photocell beam interruptions for individual animals were taken every 5 min over the duration of the experimental session and the sum of the first 6 periods was used as the final parameter. At least 8 mice were used in each treatment group. Compounds were administered i.p 15 min before a s.c. injection of 50 mg/kg of L-687,414. […] Horizontal activity was then recorded for a 30-min time period. The % inhibition of L-687,414-induced hyperlocomotion was calculated according to the equation: ((Veh+L−687,414 horizontal activity−drug+L−687,414 horizontal activity)/Veh+L−687,414 horizontal activity)×100 […]

[2] = test system: behaviors of compound-treated mice; assay: SmartCube behavioral signature similarity analysis; format: in vivo, mouse
Description: authors described that hyperlocomotion induced by L-687,414 was inhibited by a series of known antipsychotic drugs. […] These findings predict antipsychotic activity for the present compounds, making them useful for the treatment of positive (psychosis) and negative symptoms of schizophrenia, substance abuse, alcohol and drug addiction, obsessive-compulsive disorders, cognitive impairment, bipolar disorders, mood disorders, major depression, resistant depression, anxiety disorders, Alzheimer's disease, autism, Parkinson's disease, chronic pain, borderline personality disorder, sleep disturbances, chronic fatigue syndrome, stiffness, antiinflammatory effects in arthritis and balance problems, epilepsy and neurodevelopmental disorders with co morbid epilepsy. In addition to the reversal of L-687,414 induced hyperlocomotion experiment as described above, some compounds of the present invention have been tested in SmartCube®, an automated system in which the behaviors of compound-treated mice in response to multiple challenges are captured by digital video and analyzed with computer algorithms (Roberds et al., Frontiers in Neuroscience, 2011, Vol. 5, Art. 103, 1-4; Vadim Alexandrov, Dani Brunner, Taleen Hanania, Emer Leahy Eur. J. Pharmacol. 2015, 750, 82-99). In this way, the neuro-pharmacological effects of a test compound can be predicted by similarity to major classes of compounds, such as antipsychotics, anxiolytics and antidepressants.
SmartCube® was used to compare the behavioral signature of a test compound to a database of behavioral signatures obtained from a large set of clinically approved reference drugs, grouped per indications. In this way, the neuro-pharmacological effects of a test compound can be predicted by similarity to major classes of compounds, such as antipsychotics, anxiolytics and antidepressants. This approach is ideally suited to screen collections of existing drugs or drug candidates with previously unknown neuropharmacology, which could expedite the development of new and unexpected treatments for psychiatric disorders.
Some compounds of the present invention were injected i.p. at different doses 15 minutes before the test. At least 8 mice were used in each treatment group. Digital videos of the subjects were processed with computer vision algorithms to extract over 2000 dependent measures including frequency and duration of many different behavioral states. The results of the classifications are presented as bar charts for each compound and dose (mg/kg), the Y-axis indicates the relative probability that the test compound will show efficacy in the specific CNS indication.
Compounds of the present invention show similar signatures to those of atypical antipsychotics. An independent analysis was performed on the unclassified data to determine the similarity of the example compounds to active doses of known atypical antipsychotics. For this analysis, we use discrimination rate as the measure of separability between the two drugs, i.e. one drug's “distinguishability” from another. A rate equal to 50% (or 0.5) corresponds to zero distinguishability. […] In most cases, the example compounds show a similarity to risperidone, clozapine and olanzapine with a discrimination rate of ≤0.70.

[3] = SmartCube, test compound at 3 mg/kg i.p., rate of 0.70 or lower = similar

COc1ccc(N2C(=O)C(C)(C)c3ccc(-c4cnc(C)nc4)cc32)nn1 [Example 12, 1-(6-Methoxypyridazin-3-yl)-3,3-dimethyl-6-(2-methylpyrimidin-5-yl)indolin-2-one]
IC50 (mouse ENT-1 transporter): 0.0348 µM
Inhibition, ip of L-687,414-induced hyperlocomotion [1]: 94.6%
discrimination rate vs Clozapine (1.0 mg/kg) [2, 3]: 0.67
discrimination rate vs Olanzapine (0.25 mg/kg) [2, 3]: 0.63
discrimination rate vs Risperidone (0.06 mg/kg) [2, 3]: 0.56
SmartCube behavioral signature classification ([2]; mice, result in words): similarity to atypical antipsychotics

From patent US10457667B2, “Indolin-2-one derivatives” (Hoffmann-La Roche Inc., priority 2015, dated 2019)
